In patent publication US20070092444A1, “Inhibition of inward sodium currents in cancer” (priority 2003, published 2007):

Assays:
[1] = Activity of tyrosine-extended PcTX1 compared with unmodified PcTX1
[2] = tested on: U87-MG and SK-MG cells; assay: [^3H]-thymidine incorporation; format: cell-based, human; details: same concentration range (10-100 μM)
Source text: (§1) If the Na^+ conductance seen in high-grade glioma cells was required or linked to the high rate of cell growth, inhibition of the pathway should result in inhibition of cell growth and/or cell death. […] However, benzamil is ineffective in inhibiting Na^+/H^+ exchange in glial cells (73), yet still can inhibit proliferation in this assay. […] Therefore, inhibition of the inward Na^+ current results in inhibition and/or stoppage of cell growth. These observations establish the importance of this pathway in tumor cell biology.

[3] = tested on: U87-MG cells; assay: Transwell Migration Assay, U87-MG cells; format: cell-based, human; details: concentration-dependent
[4] = tested on: SKMG, U373, and U251 glioma cell lines; assay: MTT Cell Proliferation Assay, three GBM cell lines; format: cell-based, human; details: drug concentrations between 10-100 μM
Description: Cells were plated in 96-well plates at 1000, 4000, and 2000 cells/well for SK-MG, U373, and U251 cells, respectively. Drug was added at specified concentration on day 3 after plating (at the beginning of log phase of growth).
as §1

[5] = target: T1, ASIC1+ASIC2+γ-hENaC (Homo sapiens, UniProt P51170+P78348+Q16515); assay: ASIC1+ASIC2+γ-hENaC in planar lipid bilayers; format: biochemical; details: 25 μM, cis bathing solution; γ-hENaC co-expressed with ASIC1/2
T1 construct: made in house; host or cells: Xenopus oocytes (membrane vesicles)
T1 sequence (Q16515 whole entry): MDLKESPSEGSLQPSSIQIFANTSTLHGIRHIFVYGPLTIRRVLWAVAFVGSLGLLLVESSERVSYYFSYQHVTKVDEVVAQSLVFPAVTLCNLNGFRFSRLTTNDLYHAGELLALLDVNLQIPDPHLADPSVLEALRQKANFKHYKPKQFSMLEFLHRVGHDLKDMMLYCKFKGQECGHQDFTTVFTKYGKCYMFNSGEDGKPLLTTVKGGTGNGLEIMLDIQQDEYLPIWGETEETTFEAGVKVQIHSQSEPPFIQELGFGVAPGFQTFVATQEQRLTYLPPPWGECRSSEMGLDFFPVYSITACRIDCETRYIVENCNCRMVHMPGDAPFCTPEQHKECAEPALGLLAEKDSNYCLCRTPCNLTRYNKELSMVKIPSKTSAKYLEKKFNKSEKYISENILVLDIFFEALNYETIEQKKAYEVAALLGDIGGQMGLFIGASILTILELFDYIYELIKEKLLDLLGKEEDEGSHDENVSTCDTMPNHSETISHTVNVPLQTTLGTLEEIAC
T1 sequence (P78348 whole entry): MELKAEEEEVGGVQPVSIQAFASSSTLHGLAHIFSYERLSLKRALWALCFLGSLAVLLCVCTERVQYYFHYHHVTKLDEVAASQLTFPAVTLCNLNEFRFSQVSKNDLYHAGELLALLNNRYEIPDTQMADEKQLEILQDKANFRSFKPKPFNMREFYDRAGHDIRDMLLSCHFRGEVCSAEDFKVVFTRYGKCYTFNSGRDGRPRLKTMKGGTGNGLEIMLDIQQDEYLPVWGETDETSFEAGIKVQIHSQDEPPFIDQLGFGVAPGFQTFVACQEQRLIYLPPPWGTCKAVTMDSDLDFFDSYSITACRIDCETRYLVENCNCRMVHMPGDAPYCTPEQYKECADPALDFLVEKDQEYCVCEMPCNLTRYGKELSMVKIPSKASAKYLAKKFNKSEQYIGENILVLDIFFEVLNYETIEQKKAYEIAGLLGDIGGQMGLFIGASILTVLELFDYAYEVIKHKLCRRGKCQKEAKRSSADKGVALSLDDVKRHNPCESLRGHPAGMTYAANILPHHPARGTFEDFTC
T1 sequence (P51170 whole entry): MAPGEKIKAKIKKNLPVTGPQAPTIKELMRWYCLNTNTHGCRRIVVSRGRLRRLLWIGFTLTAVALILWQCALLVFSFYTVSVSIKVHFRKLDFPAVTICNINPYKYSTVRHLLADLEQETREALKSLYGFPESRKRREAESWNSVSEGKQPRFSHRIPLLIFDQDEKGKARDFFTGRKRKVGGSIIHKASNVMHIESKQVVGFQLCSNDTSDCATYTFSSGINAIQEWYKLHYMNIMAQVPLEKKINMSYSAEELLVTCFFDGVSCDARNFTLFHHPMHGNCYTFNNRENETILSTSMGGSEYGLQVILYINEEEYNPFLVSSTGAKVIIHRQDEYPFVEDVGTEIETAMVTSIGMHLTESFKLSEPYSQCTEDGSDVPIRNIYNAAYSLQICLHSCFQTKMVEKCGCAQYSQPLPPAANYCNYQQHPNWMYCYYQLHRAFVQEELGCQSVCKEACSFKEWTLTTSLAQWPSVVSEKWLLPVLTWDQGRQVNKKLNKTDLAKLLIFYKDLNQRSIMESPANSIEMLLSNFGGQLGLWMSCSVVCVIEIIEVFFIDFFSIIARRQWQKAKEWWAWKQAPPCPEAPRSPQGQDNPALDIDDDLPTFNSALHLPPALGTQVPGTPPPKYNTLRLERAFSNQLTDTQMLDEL
Description: FIGS. 14A and B show the effect of syntaxin 1A on ASIC1+ASIC2 (FIG. 14A) and ASIC1+ASIC2+γ-hENaC (FIG. 14B) in planar lipid bilayers. The holding potential was +100 mV and records were filtered at 200 Hz.
The effect of syntaxin 1A on constitutive amiloride-sensitive inward Na^+ current activity in planar lipid bilayers was examined (FIGS. 14A and B). For these experiments, membrane vesicles were prepared from oocytes that were previously injected with cRNA encoding both ASIC1 and ASIC2±γ-hENaC. […] Syntaxin 1A was then added as a GST fusion protein to the cis (or cytoplasmic) bathing solution. […] The same results were found in oocyte expression studies (FIG. 15).

In the case of “SEQ ID NO. 2: PcTX1 with a tyrosine residue or other residue at one end to aid linking to the tag protein (EDCIPKWKGCVNRHGDCCEGLECWKRRRSFEVCVPKTPKTY; listed as Psalmopoeus cambridgei)”, the “activity relative to unmodified PcTX1” value [1] is reported as “identical to the unmodified PcTX1 sequence”.

With `N=C(N)NC(=O)c1ncc(N)nc1N` [N-amidino-3,5-diamino-pyrazinecarboxamide] the “[^3H]-thymidine incorporation” value [2] was “did not affect” and the Transwell migration [3] was “did not”.

With `NC(=Nc1ccccc1)NC(=O)c1nc(Cl)c(N)nc1N` [phenamil] the “relative rate of proliferation” value [4] was “significantly inhibited”.

B1: syntaxin 3: syntaxin family member used as specificity control (protein, UniProt Q13277 1-289, looked up)
Syntaxin-3: MKDRLEQLKAKQLTQDDDTDAVEIAIDNTAFMDEFFSEIEETRLNIDKISEHVEEAKKLYSIILSAPIPEPKTKDDLEQLTTEIKKRANNVRNKLKSMEKHIEEDEVRSSADLRIRKSQHSVLSRKFVEVMTKYNEAQVDFRERSKGRIQRQLEITGKKTTDEELEEMLESGNPAIFTSGIIDSQISKQALSEIEGRHKDIVRLESSIKELHDMFMDIAMLVENQGEMLDNIELNVMHTVDHVEKARDETKKAVKYQSQARKKLIIIIVLVVVLLGILALIIGLSVGLN
For B1, the “inhibition of channel Po” value [5] was “without effect”.
